The record followed here is patent US20080161309A1, “Novel Compounds” (priority 2004, published 2008).

Broadly, the Ki is a measure of affinity in units of concentration, obtained from inhibition or displacement.

The target in assay [1] is T1, human norepinephrine transporter (hNET) (Homo sapiens, UniProt P23975).
T1 construct: expressed in transfected cells; host or cells: HEK-293, membranes
The experiment in a line: hNET receptor binding, [125I]-RTI-55, HEK-293 membranes. The following applies: Cheng-Prusoff, read-out: NET Ki. On the procedure:
Cell pastes of HEK-293 cells transfected with a human norepinephrine transporter cDNA were prepared. The cell pastes were resuspended in 400 to 700 ml of Krebs-HEPES assay buffer (25 mM HEPES, 122 mM NaCl, 3 mM KCl, 1.2 mM MgSO4, 1.3 mM CaCl2, and 11 mM glucose, pH 7.4) with a Polytron homogenizer at setting 7 for 30 seconds. Aliquots of membranes (5 mg/ml protein) were stored in liquid nitrogen until used.
The binding assay was set up in Beckman deep-well polypropylene plates with a total volume of 250 μl containing: drug (10^−5M to 10^−12M), cell membranes, and […] [^125I]-RTI-55 (Perkin Elmer, NEX-272; specific activity 2200 Ci/mmol). The reaction was incubated by gentle agitation for 90 minutes at room temperature and was terminated by filtration through Whatman GF/C filter plates using a Brandel 96-well plate harvester. Scintillation fluid (100 μl) was added to each well, and bound [^125I]-RTI-55 was determined using a Wallac Trilux Beta Plate Counter. Test compounds were run in duplicate, and specific binding was defined as the difference between binding in the presence and absence of 10 μM desipramine.
Excel and GraphPad Prism software were used for data calculation and analysis. IC50 values were converted to Ki values using the Cheng-Prusoff equation. The Ki values (nM) for the hNET are reported below in Table 1.

Assay [2] concerns the target T2, human serotonin transporter (hSERT) (Homo sapiens, UniProt P31645).
T2 construct: expressed in transfected cells; host or cells: HEK-293, membranes
The experiment in a line: hSERT receptor binding, [125I]-RTI-55, HEK-293 membranes. The note with it: [125I]-RTI-55, HEK-293 membranes, Cheng-Prusoff; read-out: SERT Ki. On the procedure: Cell pastes of HEK-293 cells transfected with a human serotonin transporter cDNA were prepared. […] Aliquots of membranes (−2.5 mg/ml protein) were stored in liquid nitrogen until used.
The reaction was incubated and gently agitated for 90 minutes at room temperature, and terminated by removal of assay volume. […] Test compounds were run in duplicate, and specific binding was defined as the difference between binding in the presence and absence of 10 μM citalopram. Excel and GraphPad Prism software were used for data calculation and analysis. IC50 values were converted to Ki values using the Cheng-Prusoff equation.

The subject of assay [3] is capsaicin-induced mechanical allodynia. The experiment in a line: Rat model of capsaicin-induced mechanical allodynia. The note with it: sc, read-out: % Inhibition of allodynia. It is filed as in vivo. On the procedure:
Compounds of the present invention may be assayed for their ability to treat fibromylagia—like pain in a rat model of capsaicin-induced mechanical allodynia (e.g., Sluka, K A, (2002) J of Neuroscience, 22(13): 5687-5693). For example, a rat model of capsaicin-induced mechanical allodynia) was be carried out as follows:
On day 0, male Sprague-Dawley rats (˜150 g) in the dark cycle were placed in suspended wire-bottom cages and allowed to acclimate for 0.5 hour in a darkened, quiet room. The day 0 paw withdrawal threshold (PWT) was determined on the left hind paw by Von Frey hair assessment using the Dixon up and down method. After assessment, the plantar muscle of the right hind paw was injected with 100 μl capsaicin (0.25% (w/v) in 10% ethanol, 10% Tween 80, in sterile saline). On day 6 the PWT of the left hindpaw (contralateral from injection site) was determined for each animal. Animals from the day 6 prereads with PWT≦11.7 g were considered allodynic responders and were regrouped so that each cage had similar mean PWT values. On day 7, responders were dosed subcutaneously with 10 mg compound/kg body weight, or with vehicle alone. The vehicle was phosphate buffered saline containing 2% Cremophor® EL (BASF). The contralateral PWT values were determined at 1 hour after the single dose, with the investigator blinded to the dosing scheme.
In addition, the day 6 PWT was subtracted from the day 0 PWT to give the baseline window of allodynia present in each animal.

[4] abbreviates: male Sprague-Dawley rats, 10 mg/kg subcutaneously, PWT 1 hour after single dose, mean of eight animals, normalized for vehicle.

Structures can show the parent of a compound that is named as a salt. Where two headings read alike, the source gives them in different places.

T2 sequence (P31645 whole entry): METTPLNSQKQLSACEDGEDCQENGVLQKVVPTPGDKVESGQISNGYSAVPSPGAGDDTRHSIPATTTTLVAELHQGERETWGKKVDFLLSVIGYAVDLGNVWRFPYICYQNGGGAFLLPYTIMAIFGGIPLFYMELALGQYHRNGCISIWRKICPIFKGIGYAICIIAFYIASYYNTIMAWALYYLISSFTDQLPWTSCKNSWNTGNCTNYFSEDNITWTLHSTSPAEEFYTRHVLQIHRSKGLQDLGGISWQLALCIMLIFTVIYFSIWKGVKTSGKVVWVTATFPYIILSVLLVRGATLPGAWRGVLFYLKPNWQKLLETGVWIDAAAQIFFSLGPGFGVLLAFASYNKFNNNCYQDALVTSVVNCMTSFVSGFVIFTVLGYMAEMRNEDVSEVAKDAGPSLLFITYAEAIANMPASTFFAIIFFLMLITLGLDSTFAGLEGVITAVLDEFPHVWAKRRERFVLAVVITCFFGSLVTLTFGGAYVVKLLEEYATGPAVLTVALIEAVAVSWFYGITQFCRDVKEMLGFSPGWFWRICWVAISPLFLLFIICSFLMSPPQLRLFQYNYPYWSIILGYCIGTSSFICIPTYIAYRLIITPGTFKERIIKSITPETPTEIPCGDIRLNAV
T1 sequence (P23975 whole entry): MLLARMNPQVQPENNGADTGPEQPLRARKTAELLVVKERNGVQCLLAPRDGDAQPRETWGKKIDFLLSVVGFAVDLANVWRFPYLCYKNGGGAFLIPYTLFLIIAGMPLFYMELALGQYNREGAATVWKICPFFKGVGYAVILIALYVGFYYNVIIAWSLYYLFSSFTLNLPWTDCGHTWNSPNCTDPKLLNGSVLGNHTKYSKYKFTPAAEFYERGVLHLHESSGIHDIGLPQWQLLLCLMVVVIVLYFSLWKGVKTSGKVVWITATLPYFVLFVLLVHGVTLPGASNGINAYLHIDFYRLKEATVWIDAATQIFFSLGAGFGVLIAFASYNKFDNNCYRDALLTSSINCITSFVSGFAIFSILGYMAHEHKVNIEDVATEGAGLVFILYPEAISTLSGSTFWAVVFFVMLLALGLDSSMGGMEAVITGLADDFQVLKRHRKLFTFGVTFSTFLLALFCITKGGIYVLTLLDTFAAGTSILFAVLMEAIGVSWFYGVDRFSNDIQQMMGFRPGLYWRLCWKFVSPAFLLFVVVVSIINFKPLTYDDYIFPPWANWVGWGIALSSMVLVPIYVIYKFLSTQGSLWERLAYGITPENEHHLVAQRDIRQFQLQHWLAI

Turning to `COc1cc(Cl)c(Cl)cc1O[C@@H](c1ccccc1)[C@@H]1CNCCO1` [Example 93, (2S)-2-[(1S)-(4,5-Dichloro-2-methoxyphenoxy)phenylmethyl] morpholine fumarate], the inhibition constant Ki in assay [1] worked out at 164 nM; in assay [2], 70 nM. The inhibition in vivo at 10 mg/kg in assay [3] (setting [4]) worked out at 39%.

For `Fc1cccc([C@H](Oc2cc(F)cc(F)c2Cl)[C@@H]2CNCCO2)c1` [Example 48, (2S)-2-[(1S)-(2-Chloro-3,5-difluorophenoxy)(3-fluorophenyl)methyl] morpholine hydrochloride], the inhibition constant (Ki) in assay [1] is 16.5 nM; in assay [2], 80 nM. Also, in assay [3] (setting [4]), the inhibition in vivo at 10 mg/kg worked out at 6.5%.

On to `Fc1c(Cl)cccc1O[C@@H](c1ccccc1)[C@@H]1CNCCO1` [Example 80, (2S)-2-[(1S)-(3-chloro-2-fluoro-phenoxy)-phenyl-methyl]-morpholine fumarate salt], for which the inhibitory constant (Ki) stood at 4.4 nM in assay [1] and 127 nM in assay [2]. In addition, the inhibition in vivo at 10 mg/kg in assay [3] (setting [4]) was 40%.

As for `Cc1cccc([C@H](Oc2ccc(F)cc2Cl)[C@@H]2CNCCO2)c1` [Example 56, (2S)-2-[(1S)-(2-Chloro-4-fluorophenoxy)-m-tolyl-methyl] morpholine hydrochloride], the inhibition constant Ki turned out to be 13.6 nM in assay [1] and 152 nM in assay [2]. In addition, in assay [3] (setting [4]), the inhibition in vivo at 10 mg/kg is 35.6%.

With `CCOc1ccccc1O[C@@H](c1ccccc1)[C@@H]1CNCCO1` [(2S)-2-[(1S)-(2-ethoxyphenoxy)(phenyl)methyl]morpholine, reference compound], in assay [3] (1 h), the inhibition in vivo at 10 mg/kg is 17%.

Consider `COc1cc(C)ccc1O[C@@H](c1cccc(F)c1)[C@@H]1CNCCO1` [Example 79, (2S)-2-[(1S)-(3-Fluorophenyl)(2-methoxy-4-methylphenoxy)-methyl]morpholine hydrochloride], for which the Ki in assay [1] is 12.6 nM; in assay [2] it was 100 nM. For the same molecule, in assay [3] (setting [4]), the inhibition in vivo at 10 mg/kg was 99.5%.

As for `Fc1ccc(Cl)c(O[C@@H](c2cccc(Cl)c2)[C@@H]2CNCCO2)c1` [Example 53, (2S)-2-[(1S)-(2-Chloro-5-fluorophenoxy) (3-chlorophenyl)methyl] morpholine hydrochloride], the values for the Ki in assay [1] and in assay [2] were 26.6 nM and 344 nM, respectively.

Consider `Clc1ccc(Cl)c(O[C@@H](c2ccccc2)[C@@H]2CNCCO2)c1` [Example 89, (2S)-2-[(1S)-(2,5-Dichlorophenoxy)phenylmethyl] morpholine fumarate], for which the Ki turned out to be 20.3 nM in assay [1] and 171 nM in assay [2]. For the same molecule, in assay [3] (setting [4]), the inhibition in vivo at 10 mg/kg stood at 27.8%.

As to `FC(F)(F)c1ccc(Cl)c(O[C@@H](c2ccccc2)[C@@H]2CNCCO2)c1` [Example 88, (2S)-2-[(1S)-(2-Chloro-5-trifluoromethylphenoxy)phenylmethyl] morpholine fumarate], the inhibition constant Ki came out at 420 nM in assay [1] and 760 nM in assay [2].

Turning to `COc1ccc(O[C@@H](c2ccccc2)[C@@H]2CNCCO2)c(Cl)c1` [Example 96, (2S)-2-[(1S)-(2-Chloro-4-methoxyphenoxy)phenylmethyl] morpholine fumarate], the Ki was 25.7 nM in assay [1] and 47 nM in assay [2].

Turning to `Fc1cccc([C@H](Oc2ccc(Cl)cc2F)[C@@H]2CNCCO2)c1` [Example 44, (2S)-2-[(1S)-(4-Chloro-2-fluorophenoxy)(3-fluorophenyl)methyl] morpholine hydrochloride], the values for the inhibition constant (Ki) in assay [1] and in assay [2] were 33.3 nM and 74.8 nM, respectively.

As for `Fc1c(F)c(F)c(O[C@@H](c2ccccc2)[C@@H]2CNCCO2)c(F)c1F` [Example 85, (2S)-2-[(1S)-(Pentafluorophenyloxy) (phenyl)methyl] morpholine fumarate], the inhibition constant (Ki) in assay [1] is 10.9 nM; in assay [2] it was 385 nM.

Regarding `COc1cccc([C@H](Oc2ccc(F)cc2Cl)[C@@H]2CNCCO2)c1` [Example 63, (2S)-2-[(1S)-(2-Chloro-4-fluorophenoxy)-(3-methoxyphenyl)methyl] morpholine hydrochloride], the Ki in assay [1] came out at 3.21 nM; in assay [2], 124 nM.

`Fc1cccc([C@H](Oc2ccc(C(F)(F)F)cc2)[C@@H]2CNCCO2)c1` [Example 67, (2S)-2-[(1S)-(3-Fluorophenyl) (4-trifluoromethyl phenoxy)methyl] morpholine hydrochloride]: the Ki in assay [1] is 390 nM; in assay [2], 35.5 nM.

In the case of “(2S)-2-[(1S)-Pentachlorophenyloxy phenyl methyl] morpholine fumarate [Example 95]”, the results for the inhibitory constant (Ki) in assay [1] and in assay [2] were 587 nM and 39.6 nM, respectively.

Regarding `COc1cc(C)ccc1O[C@@H](c1ccc(F)cc1)[C@@H]1CNCCO1` [Example 42, (2S)-2-[(1S)-(2-methoxy-4-methylphenoxy)4-fluorophenyl) methyl] morpholine hydrochloride], the inhibitory constant (Ki) in assay [1] stood at 11.4 nM; in assay [2], 69.2 nM.

As to `Fc1cccc([C@H](Oc2c(F)cccc2F)[C@@H]2CNCCO2)c1` [Example 47, (2S)-2-[(1S)-(2,6-Difluorophenoxy)-(3-fluorophenyl)methyl] morpholine hydrochloride], the values for the inhibition constant Ki in assay [1] and in assay [2] were 6.9 nM and 967 nM, respectively.

On to `Cc1c(Cl)cccc1O[C@@H](c1ccccc1)[C@@H]1CNCCO1` [Example 82, (2S)-2-[(1S)-(3-Chloro-2-methylphenoxy)phenylmethyl] morpholine fumarate], for which the Ki stood at 11.9 nM in assay [1] and 12.1 nM in assay [2].

In the case of `COc1cc(C)ccc1O[C@@H](c1ccccc1)[C@@H]1CNCCO1` [Example 40, (2S)-2-[(1S)-(2-Methoxy-4-methylphenoxy)phenylmethyl] morpholine hydrochloride], the Ki in assay [1] came to 4.3 nM; in assay [2], 158 nM.

Turning to `Fc1ccc(O[C@@H](c2ccc(Cl)cc2)[C@@H]2CNCCO2)c(Cl)c1` [Example 72, (2S)-2-[(1S)-(2-Chloro-4-fluorophenoxy) (4-chlorophenyl)methyl] morpholine hydrochloride], the Ki stood at 91.6 nM in assay [1] and 78.9 nM in assay [2].

As for `Fc1cccc([C@H](Oc2cccc(F)c2F)[C@@H]2CNCCO2)c1` [Example 39, (2S)-2-[(1S)-(2,3-Difluorophenoxy)(3-fluorophenyl)methyl] morpholine hydrochloride], the results for the Ki in assay [1] and in assay [2] were 3.77 nM and 142 nM, respectively.

Turning to `CCCc1ccccc1O[C@@H](c1cccc(F)c1)[C@@H]1CNCCO1` [Example 66, (2S)-2-[(1S)-(3-Fluorophenyl) (2-propylphenoxy)methyl] morpholine hydrochloride], the Ki in assay [1] was 19.9 nM; in assay [2], 1040 nM.

As for `Clc1cc(Cl)c(O[C@@H](c2ccccc2)[C@@H]2CNCCO2)c(Cl)c1` [Example 98, (2S)-2-[(1S)-Phenyl-(2,4,6-trichlorophenoxy)methyl] morpholine fumarate], the inhibition constant (Ki) in assay [1] is 755 nM; in assay [2] it was 49.6 nM.

For `COc1cc(Cl)ccc1O[C@@H](c1ccccn1)[C@@H]1CNCCO1` [Example 103, (2S)-2-[(1S)-(4-chloro-2-methoxyphenoxy)(pyridin-2-yl)methyl]morpholine fumarate], the Ki in assay [1] is 12.8 nM; in assay [2], 101 nM.

Take `COc1c(Cl)c(Cl)cc(Cl)c1O[C@@H](c1ccccc1)[C@@H]1CNCCO1` [Example 91, (2S)-2-[(1S)-Phenyl-(3,4,6-trichloro-2-methoxyphenoxy)methyl] morpholine fumarate]: the figures for the Ki in assay [1] and in assay [2] were 228 nM and 26.7 nM, respectively.
